According to patent US11505558B1, “Antiviral heterocyclic compounds” (Enanta Pharmaceuticals, Inc., priority 2019, dated 2022):

System: genotype A, "Long" strain RSV
Experiment: RSV-A assay (CPE, ATPlite readout in Hep-2 cells)
Type: cell-based
Conditions: human respiratory syncytial virus, HEp-2, Hep-2 cells, genotype A "Long" strain RSV, MOI 0.1; read-out: Human RSV-A (“Long” strain) EC50
From the text: Hep-2 cells, (originally derived from tumors grown in irradiated-cortisonised weanling rats that had been injected with epidermoid carcinoma tissue from a person's larynx, but later found to be indistinguishable from HeLa cells by PCR DNA analysis), were used for the culturing of genotype A, “Long” strain RSV. Flasks were inoculated with RSV and viral stocks were collected once cytopathic effect (CPE) was greater than […]. Viral stocks in […] sucrose media were snap frozen using liquid nitrogen to increase viral stability. Viral stock titers were quantified by tissue culture infectious dose 50% (TCID50) using 8,000 cells per well and 3-fold viral dilutions across a 96-well plate, cultured for 4 days. Viral stock titers were also quantified by a plaque forming unit assay, as described elsewhere.
Following extensive parameter testing, the final assay is run as follows: Hep-2 cells are seeded into the inner 60 wells of a 96-well plate at 8,000 cells per well in a volume of 50 μL using Growth Media (DMEM without phenol red, 1% L-Glut, 1% Penn/Strep, 1% nonessential amino acids, 10% heat-inactivated FBS). 2-fold serial dilutions of control and test compounds are added to the wells in duplicate in a total volume of 25 μL. Viral stock is then added to the wells at a multiplicity of infection (MOI) of 0.1 in a volume of 25 μL, bringing the total volume of each well to 100 μL. The MOI is calculated using the PFU/mL, or TCID50 if unavailable. Each 96-well plate has a control column of 6 wells with cells and virus but no compound (negative control, max CPE), a column with cells but no compound or virus (positive control, minimum CPE), and a column with no cells or virus or compound (background plate/reagent control). The control wells with cells but no virus are given an additional 25 μL of growth media containing an equal quantity of sucrose as those wells receiving the viral stock in order to keep consistent in media and volume conditions. The outer wells of the plate are filled with 125 μL of moat media (DMEM, 1% Penn/Strep) to act as a thermal and evaporative moat around the test wells. Following a 5-day incubation period, the plates are read using ATPlite (50 uL added per well), which quantifies the amount of ATP (a measure of cell health) present in each well. Assay plates are read using the Envision luminometer. […] EC50 ranges are as follows: A<0.2 μM; B>0.2 μM.

Row | SMILES | EC50 [nM]
1 | CCc1ncc(-c2cc(C(=O)NC[C@](O)(c3cc4c(c(-c5ccc(F)cc5)n3)OC[C@]4(C)C(N)=O)C(F)(F)F)ccc2OC2CC2)cn1 [Example 131] | < 200
2 | C[C@]1(C(N)=O)COc2c1cc([C@@](O)(CNC(=O)c1ccc(OC3CC3)c(-c3ccc(=O)[nH]c3)c1)C(F)(F)F)nc2-c1ccc(F)cc1 [Example 132] | > 200
3 | C[C@]1(C(N)=O)COc2c1cc([C@@](O)(CNC(=O)c1ccc(OC3CC3)c(N3CCOCC3)c1)C(F)(F)F)nc2-c1ccc(F)cc1 [Example 133] | < 200
4 | C[C@]1(C(N)=O)COc2c1cc([C@@](O)(CNC(=O)c1ccc(OC3CC3)c(N3CCCCC3)c1)C(F)(F)F)nc2-c1ccc(F)cc1 [Example 134] | > 200
5 | C[C@]1(C(N)=O)COc2c1cc([C@@](O)(CNC(=O)c1ccc(OC3CC3)c(-c3ccnnc3)c1)C(F)(F)F)nc2-c1ccc(F)cc1 [Example 135] | < 200
6 | C[C@]1(C(N)=O)COc2c1cc([C@@](O)(CNC(=O)c1ccc(OC3CC3)c(-c3cccnc3C(F)(F)F)c1)C(F)(F)F)nc2-c1ccc(F)cc1 [Example 138] | < 200
7 | C[C@]1(C(N)=O)COc2c1cc([C@@](O)(CNC(=O)c1ccc(OC3CC3)c(-c3cnccc3C(F)(F)F)c1)C(F)(F)F)nc2-c1ccc(F)cc1 [Example 139] | > 200
8 | C[C@]1(C(N)=O)COc2c1cc([C@@](O)(CNC(=O)c1ccc(-c3cccnc3)c(OC3CC3)c1)C(F)(F)F)nc2-c1ccc(F)cc1 [Example 141] | < 200
9 | Cc1cncc(-c2ccc(C(=O)NC[C@](O)(c3cc4c(c(-c5ccc(F)cc5)n3)OC[C@]4(C)C(N)=O)C(F)(F)F)cc2OC2CC2)c1 [Example 142] | > 200
10 | C[C@]1(C(N)=O)COc2c1cc([C@@](O)(CNC(=O)c1ccc(-c3cncc(C(F)(F)F)c3)c(OC3CC3)c1)C(F)(F)F)nc2-c1ccc(F)cc1 [Example 143] | > 200
11 | Cc1ncccc1-c1ccc(C(=O)NC[C@](O)(c2cc3c(c(-c4ccc(F)cc4)n2)OC[C@]3(C)C(N)=O)C(F)(F)F)cc1OC1CC1 [Example 144] | > 200
12 | C[C@]1(C(N)=O)COc2c1cc([C@@](O)(CNC(=O)c1ccc(-c3cccnc3C(F)(F)F)c(OC3CC3)c1)C(F)(F)F)nc2-c1ccc(F)cc1 [Example 145] | > 200
13 | Cc1ccc(-c2ccc(C(=O)NC[C@](O)(c3cc4c(c(-c5ccc(F)cc5)n3)OC[C@]4(C)C(N)=O)C(F)(F)F)cc2OC2CC2)cn1 [Example 146] | > 200
14 | C[C@]1(C(N)=O)COc2c1cc([C@@](O)(CNC(=O)c1ccc(-c3ccc(C(F)(F)F)nc3)c(OC3CC3)c1)C(F)(F)F)nc2-c1ccc(F)cc1 [Example 147] | > 200
15 | Cc1ccncc1-c1ccc(C(=O)NC[C@](O)(c2cc3c(c(-c4ccc(F)cc4)n2)OC[C@]3(C)C(N)=O)C(F)(F)F)cc1OC1CC1 [Example 148] | > 200
16 | C[C@]1(C(N)=O)COc2c1cc([C@@](O)(CNC(=O)c1ccc(-c3cnccc3C(F)(F)F)c(OC3CC3)c1)C(F)(F)F)nc2-c1ccc(F)cc1 [Example 149] | > 200
17 | C[C@]1(C(N)=O)COc2c1cc([C@@](O)(CNC(=O)c1ccc(-c3ccncc3)c(OC3CC3)c1)C(F)(F)F)nc2-c1ccc(F)cc1 [Example 150] | < 200
18 | Cc1cc(-c2ccc(C(=O)NC[C@](O)(c3cc4c(c(-c5ccc(F)cc5)n3)OC[C@]4(C)C(N)=O)C(F)(F)F)cc2OC2CC2)ccn1 [Example 151] | < 200
19 | C[C@]1(C(N)=O)COc2c1cc([C@@](O)(CNC(=O)c1ccc(-c3ccnc(C(F)(F)F)c3)c(OC3CC3)c1)C(F)(F)F)nc2-c1ccc(F)cc1 [Example 152] | > 200
20 | Cc1cnccc1-c1ccc(C(=O)NC[C@](O)(c2cc3c(c(-c4ccc(F)cc4)n2)OC[C@]3(C)C(N)=O)C(F)(F)F)cc1OC1CC1 [Example 153] | > 200
21 | C[C@]1(C(N)=O)COc2c1cc([C@@](O)(CNC(=O)c1ccc(-c3ccncc3C(F)(F)F)c(OC3CC3)c1)C(F)(F)F)nc2-c1ccc(F)cc1 [Example 154] | > 200
22 | C[C@]1(C(N)=O)COc2c1cc([C@@](O)(CNC(=O)c1ccc(-c3ccccn3)c(OC3CC3)c1)C(F)(F)F)nc2-c1ccc(F)cc1 [Example 155] | > 200
23 | C[C@]1(C(N)=O)COc2c1cc([C@@](O)(CNC(=O)c1ccc(-c3ccc(C(F)(F)F)cn3)c(OC3CC3)c1)C(F)(F)F)nc2-c1ccc(F)cc1 [Example 156] | > 200

Continued, values first:

Row | EC50 [nM] | SMILES
24 | > 200 | Cc1ccc(-c2ccc(C(=O)NC[C@](O)(c3cc4c(c(-c5ccc(F)cc5)n3)OC[C@]4(C)C(N)=O)C(F)(F)F)cc2OC2CC2)nc1 [Example 157]
25 | > 200 | Cc1cccc(-c2ccc(C(=O)NC[C@](O)(c3cc4c(c(-c5ccc(F)cc5)n3)OC[C@]4(C)C(N)=O)C(F)(F)F)cc2OC2CC2)n1 [Example 158]
26 | < 200 | C[C@]1(C(N)=O)COc2c1cc([C@@](O)(CNC(=O)c1ccc(N3CCC3)c(OC3CC3)c1)C(F)(F)F)nc2-c1ccc(F)cc1 [Example 159]
27 | > 200 | C[C@]1(C(N)=O)COc2c1cc([C@@](O)(CNC(=O)c1ccc(N3CCOCC3)c(OC3CC3)c1)C(F)(F)F)nc2-c1ccc(F)cc1 [Example 160]
28 | > 200 | C[C@]1(C(N)=O)COc2c1cc([C@@](O)(CNC(=O)c1ccc(N3CCCCC3)c(OC3CC3)c1)C(F)(F)F)nc2-c1ccc(F)cc1 [Example 161]
29 | > 200 | C[C@]1(C(N)=O)COc2c1cc([C@@](O)(CNC(=O)c1ccc(-c3cccc(C(F)(F)F)n3)c(OC3CC3)c1)C(F)(F)F)nc2-c1ccc(F)cc1 [Example 162]
30 | > 200 | C[C@]1(C(N)=O)COc2c1cc([C@@](O)(CNC(=O)c1ccc(-c3ncccn3)c(OC3CC3)c1)C(F)(F)F)nc2-c1ccc(F)cc1 [Example 163]
31 | > 200 | Cc1ncc(-c2ccc(C(=O)NC[C@](O)(c3cc4c(c(-c5ccc(F)cc5)n3)OC[C@]4(C)C(N)=O)C(F)(F)F)cc2OC2CC2)cn1 [Example 164]
32 | > 200 | C[C@]1(C(N)=O)COc2c1cc([C@@](O)(CNC(=O)c1ccc(-c3cnc(C4CC4)nc3)c(OC3CC3)c1)C(F)(F)F)nc2-c1ccc(F)cc1 [Example 165]
33 | < 200 | C[C@]1(C(N)=O)COc2c1cc([C@@](O)(CNC(=O)c1ccc(-c3cnccn3)c(OC3CC3)c1)C(F)(F)F)nc2-c1ccc(F)cc1 [Example 166]
34 | > 200 | Cc1cnc(-c2ccc(C(=O)NC[C@](O)(c3cc4c(c(-c5ccc(F)cc5)n3)OC[C@]4(C)C(N)=O)C(F)(F)F)cc2OC2CC2)cn1 [Example 167]
35 | < 200 | C[C@]1(C(N)=O)COc2c1cc([C@@](O)(CNC(=O)c1ccc(-c3ccnnc3)c(OC3CC3)c1)C(F)(F)F)nc2-c1ccc(F)cc1 [Example 168]
36 | > 200 | C[C@]1(C(N)=O)COc2c1cc([C@@](O)(CNC(=O)c1ccc(-c3ccc(=O)[nH]c3)c(OC3CC3)c1)C(F)(F)F)nc2-c1ccc(F)cc1 [Example 169]
37 | > 200 | C[C@]1(C(N)=O)COc2c1cc([C@@](O)(CNC(=O)c1ccc(-c3ccncn3)c(OC3CC3)c1)C(F)(F)F)nc2-c1ccc(F)cc1 [Example 170]
38 | < 200 | C[C@]1(C(N)=O)COc2c1cc([C@@](O)(CNC(=O)c1ccc(-c3ncco3)c(OC3CC3)c1)C(F)(F)F)nc2-c1ccc(F)cc1 [Example 171]
39 | > 200 | Cc1noc(C)c1-c1ccc(C(=O)NC[C@](O)(c2cc3c(c(-c4ccc(F)cc4)n2)OC[C@]3(C)C(N)=O)C(F)(F)F)cc1OC1CC1 [Example 172]
40 | > 200 | C[C@]1(C(N)=O)COc2c1cc([C@@](O)(CNC(=O)c1ccc(-c3nccs3)c(OC3CC3)c1)C(F)(F)F)nc2-c1ccc(F)cc1 [Example 173]
41 | > 200 | C[C@]1(C(N)=O)COc2c1cc([C@@](O)(CNC(=O)c1ccc(-c3cscn3)c(OC3CC3)c1)C(F)(F)F)nc2-c1ccc(F)cc1 [Example 174]
42 | < 200 | C[C@]1(C(N)=O)COc2c1cc([C@@](O)(CNC(=O)c1ccc(-c3cncs3)c(OC3CC3)c1)C(F)(F)F)nc2-c1ccc(F)cc1 [Example 175]
43 | > 200 | Cc1ncc(-c2ccc(C(=O)NC[C@](O)(c3cc4c(c(-c5ccc(F)cc5)n3)OC[C@]4(C)C(N)=O)C(F)(F)F)cc2OC2CC2)s1 [Example 176]
44 | > 200 | COc1ncc(-c2ccc(C(=O)NC[C@](O)(c3cc4c(c(-c5ccc(F)cc5)n3)OC[C@]4(C)C(N)=O)C(F)(F)F)cc2OC2CC2)s1 [Example 177]
45 | > 200 | C[C@]1(C(N)=O)COc2c1cc([C@@](O)(CNC(=O)c1ccc(C3=CCOCC3)c(OC3CC3)c1)C(F)(F)F)nc2-c1ccc(F)cc1 [Example 178]
46 | < 200 | Cc1nocc1-c1ccc(C(=O)NC[C@](O)(c2cc3c(c(-c4ccc(F)cc4)n2)OC[C@]3(C)C(N)=O)C(F)(F)F)cc1OC1CC1 [Example 181]
